Experimental findings from patent US5364854A, “Derivatives of substituted imidazo benzoxazin-1-one and process for their preparation” (Farmitalia Carlo Erba S.r.l., priority 1992, dated 1994) are described below.

In general, Ki refers to a dissociation constant, usually derived from enzyme kinetics or from competition with a known ligand. The % Inhibition is the percentage by which the read-out fell short of the control. Low values mean a weak effect, high ones a strong effect. A word on the ED50: it is the dose that gives a 50% effect, or the effect in half of the subjects.

One experiment addresses 5-HT3 receptor. As to the kind of experiment: Inhibition of the binding of ^3 H-GR65630 to 5-HT3 sites in rat entorhinal cortex. Particulars: ^3 H-GR 65630, rat entorhinal cortex, low (affinity site), two-site fit. From the text:
(§1) The following Table II reports the data obtained in this in vitro test for a representative group of compounds of the invention in comparison with the known reference compounds MDL 72222 and Metoclopramide.
(§2) 5-HT3 binding affinity ^(a) for rat entorhinal cortex
(§3) ^(a) [^3 HGR 65630 labelled 5HT3 sites.
(§4) The tested compounds were able to interact with 5-HT3 -serotonin receptors labelled in the entorhinal cortex of the rat brain with ^3 H-GR 65630.

Experiment [1] deals with T1, 5HT3 receptor (Rattus norvegicus, UniProt P35563).
T1 sequence (P35563 24-483): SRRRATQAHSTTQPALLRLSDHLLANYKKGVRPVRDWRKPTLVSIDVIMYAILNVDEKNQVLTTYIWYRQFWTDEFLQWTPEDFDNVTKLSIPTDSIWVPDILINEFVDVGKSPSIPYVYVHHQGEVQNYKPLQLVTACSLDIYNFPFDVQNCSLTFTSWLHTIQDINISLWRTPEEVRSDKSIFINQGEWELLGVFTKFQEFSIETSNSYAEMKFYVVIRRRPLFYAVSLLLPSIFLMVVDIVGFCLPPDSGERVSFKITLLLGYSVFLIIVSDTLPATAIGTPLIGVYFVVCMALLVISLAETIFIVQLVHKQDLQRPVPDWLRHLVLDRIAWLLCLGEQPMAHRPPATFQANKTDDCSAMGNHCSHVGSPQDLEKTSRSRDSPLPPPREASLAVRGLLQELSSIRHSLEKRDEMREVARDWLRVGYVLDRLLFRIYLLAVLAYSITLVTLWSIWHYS
Described as above. Also noted: labelled in the entorhinal cortex of the rat brain; from tissue; host or cells: rat entorhinal cortex.
Source text: as §1, §2, §3, §4

For experiment [2], the target named is T1, 5HT3 receptor. As to the kind of experiment: 5-HT3 binding affinity in rat entorhinal cortex using ^3 H-BRL 43694 (Granisetron). Also noted: labelled in the entorhinal cortex of the rat brain; from tissue; host or cells: rat entorhinal cortex. How it is done: The affinity for serotonin 5-HT3 receptor was also assessed for instance in rat entorhinal cortex using the selective radioligand ^3 H-[…] as described by Nelson and Thomas (1989).
Nelson D. R. and Thomas D. R., [^3 H]-BRL 43694 (Granisetron), a specific ligand for 5-HT3 binding sites in rat brain cortical membranes Biochem. Pharmac. 38, 1693-1695, 1989.
The following Table III summarizes the data obtained in this in vitro test for a representative group of compounds of the invention in comparison with the known reference compounds MDL 72222 and Metoclopramide.
5-HT3 binding affinity ^b) for rat entorhinal cortex.
^(b) ^3 […] labelled 5HT3 sites

Experiment [3] concerns the target T1, 5HT3 receptor. As to the kind of experiment: Inhibition of the von Bezold-Jarisch chemoreflex evoked by 5-HT (20 μg/kg i.v.) in the anesthetised rat (in vivo 5HT3 antagonist activity). Also noted: chemoreflex evoked by 5-HT in the anesthetised rat; from tissue; host or cells: anaesthetised rat in vivo (own knowledge: 5-HT3 receptors on cardiac vagal afferents). Particulars: anesthetized rat; for % Inhibition: mean ± S.E.M.; for ED50: iv, limits in parentheses on the following line. How it is done:
Pharmacol. 326, 36-44 (1984).
The following Table I reports the in vivo 5HT3 antagonist activity data obtained in this test for the representative compounds of the invention 2,3,3a,4-tetrahydro-2-(1-azabicyclo [2.2.2]oct-3-yl)-8-chloro-1H-imidazo[5,1-c][1,4]benzoxazin-1-one hydrochloride (internal code FCE 26781);
Inhibition of the Bezold-Jarisch reflex elicited by 5-HT (20
μg/kg i.v.) by i.v. FCE compounds in the anesthetized rat.
Values are mean ± S.E.M. from N animals

The mark [4] stands for this setting: ^3 H-GR 65630, rat entorhinal cortex, high (affinity site), only Ki where one-site fit, read-out: Ki high.
Setting [5] is: ^3 H-BRL 43694 labelled 5HT3 sites, rat entorhinal cortex, read-out: Ki.

The structures appear in SMILES notation. Where a name gives a salt, the structure may show the parent alone.

With `Cl.O=C1N(C2CN3CCC2CC3)CC2COc3ccc(Cl)cc3N12` (stereo not shown) [FCE 26781, 2,3,3a,4-tetrahydro-2-(1-azabicyclo [2.2.2]oct-3-yl)-8-chloro-1H-imidazo[5,1-c][1,4]benzoxazin-1-one hydrochloride], the Ki at 5-HT3 receptor stood at 1900 nM; on 5HT3 receptor [1], 2.61 nM; on 5HT3 receptor [2], 13 nM. In addition, the “% Inhibition” value on 5HT3 receptor [3] (50 μg/kg i.v., N=6) stood at 29.50 ± 6.34%; at 5HT3 receptor [3] (150 μg/kg i.v., N=6), 50.38 ± 5.45%; at 5HT3 receptor [3] (450 μg/kg i.v., N=6), 90.38 ± 2.80%. In addition, the 50% effective dose (ED50) on 5HT3 receptor [3] was found to be 0.112 mg/kg.

Consider `CCN(CC)CCNC(=O)c1cc(Cl)c(N)cc1OC` [Metoclopramide, reference compound], for which the affinity on 5HT3 receptor [2], expressed as Ki, was 490 nM.

For `CN1C2CCC1CC(N1CC3COc4ccc(Cl)cc4N3C1=O)C2` (stereo not drawn) [FCE 26783, (endo)-2,3,3a,4-tetrahydro-8-chloro-2-(8-methyl-8-azabicyclo [3.2.1]oct-3-yl)-1H-imidazo[5,1-c][1,4]benzoxazin-1-one hydrochloride], the results for the Ki on 5HT3 receptor [1] (setting [4]) and on 5HT3 receptor [2] were 400 nM and 30 nM, respectively. For the same compound, the “% Inhibition” value on 5HT3 receptor [3] (100 μg/kg i.v., N=3-7) is 30.9 ± 6.0%.

Compound `CN1C2CCC1CC(OC(=O)c1cc(Cl)cc(Cl)c1)C2` (stereo not shown) [MDL 72222, reference compound] showed a Ki at 5HT3 receptor [2] of 23 nM.

On to `CN1C2CCC1CC(N1CC3COc4ccccc4N3C1=O)C2` (stereo not drawn) [FCE 26878, (endo)-2,3,3a,4-tetrahydro-2-(8-methyl-8-azabicyclo[3.2.1]oct-3-yl)-1H-imidazo[5,1-c][1,4]benzoxazin-1-one, hydrochloride], for which the Ki at 5HT3 receptor [1] amounted to 70 nM; at 5HT3 receptor [2], 9 nM. Further, the “% Inhibition” value on 5HT3 receptor [3] (100 μg/kg i.v., N=3-7) came out at 85.8 ± 1.7%. For the same compound, the ED50 on 5HT3 receptor [3] stood at 0.0138 mg/kg.

As to `CN1C2CCCC1CC(N1CC3COc4ccccc4N3C1=O)C2` (stereo not drawn) [FCE 26963, (endo)-2,3,3a,4-tetrahydro-2-(9-methyl-9-azabicyclo[3.3.1]non-3-yl)-1H-imidazo[5,1-c][1,4]benzoxazin-1-one hydrochloride], the Ki on 5-HT3 receptor came out at 72000 nM; on 5HT3 receptor [1] (setting [4]), 151 nM; at 5HT3 receptor [2] (setting [5]) it was 170 nM. For the same compound, the “% Inhibition” value on 5HT3 receptor [3] (100 μg/kg i.v., N=3-7) is 27.1 ± 10.7%.

In the case of `Cl.O=C1N(C2CN3CCC2CC3)CC2COc3ccccc3N12` (stereo not shown) [FCE 26962, 2,3,3a,4-tetrahydro-2-(1-azabicyclo[2.2.2]oct-3-yl)-1H-imidazo [5,1-c][1,4]benzoxazin-1-one hydrochloride], the Ki at 5-HT3 receptor was 14000 nM; on 5HT3 receptor [1], 9.74 nM; on 5HT3 receptor [2], 0.4 nM. Besides, the “% Inhibition” value on 5HT3 receptor [3] (100 μg/kg i.v., N=3-7) amounted to 86.4 ± 1.8%. The ED50 at 5HT3 receptor [3] is 0.0263 mg/kg.

On to `CN1C2CCCC1CC(N1CC3COc4ccc(Cl)cc4N3C1=O)C2` (stereo not drawn) [FCE 26785, (endo)-2,3,3a,4-tetrahydro-8-chloro-2-(9-methyl-9-azabicyclo[3.3.1]non-3-yl)-1H-imidazo[5,1-c][1,4]benzoxazin-1-one hydrochloride], for which the inhibitory constant (Ki) at 5-HT3 receptor was 600 nM; on 5HT3 receptor [1], 9.79 nM; at 5HT3 receptor [2] (setting [5]) it was 310 nM.
